The test deals with Plasmodium falciparum. Description: GSK_TCMDC: Inhibition of Plasmodium falciparum 3D7 in whole erythrocytes, using parasite LDH activity as an index of growth. The format is functional, organism-based. Conditions: Plasmodium falciparum, 3D7.
`CCN(CC)CCN(Cc1ccc(-c2ccc(C(F)(F)F)cc2)cc1)C(=O)Cn1c(CCc2cc(F)ccc2F)nc(=O)c2ccccc21`: the XC50 turned out to be 828 nM. For `Cc1ccc(OCC2CCN(c3ncc(C(=O)NCCCN4CCCC4=O)cc3Cl)CC2)cc1` the value was 1260 nM; for `Cc1cccc2nc(-c3ccc(-c4cccc(NC(=O)C(C)CN5CCN(C)CC5)c4)cc3)[nH]c12` (stereo not given), 739 nM; for `O=C(Nc1cccc(-c2csc(-c3nc4ccccc4[nH]3)c2)c1)c1ccoc1`, 211 nM.

Molecule `O=C(NC1CCN(Cc2cccc(C(F)(F)F)c2)CC1)c1ccc(-c2cccc(Cl)c2)s1` displayed an XC50 of 1130 nM.

`Cn1nccc1C(=O)NCCNCc1cccc(-c2ccc(-c3nc4ccccc4[nH]3)s2)c1` displayed an XC50 of 303 nM. For `Cc1ccc(NC(=O)c2ccc(-c3cc4cc(Cl)c(Cl)cc4[nH]3)cc2)cc1OCCN1CCCC1` the value was 991 nM.

`Clc1ccc2nccc(N3CCC(CN4CCC(c5c[nH]c6ccccc56)CC4)CC3)c2c1` registered an XC50 of 33.9 nM. Next, `O=C(NCCc1ccccc1)N(Cc1cccc(-c2ccc(CNCCc3ccccc3)cc2)c1)C1CCN(Cc2ccccc2)CC1`: 613 nM; `CCCN(CCCN(CCCN(CCC)C(C)C)c1cc(C)nc(Nc2ccc(Cl)cc2)n1)C(C)C`: 113 nM. Next, `c1cncc(Oc2ccc(Nc3ccnc4cc(-c5cccc(CNCCN6CCOCC6)c5)ccc34)cc2)c1`: 112 nM. For `Cc1csc2nc(-c3ccccn3)nc(Nc3ccc4ncsc4c3)c12` the value was 1110 nM; for `Cc1ccc(NC(=O)c2ccc(Cl)c(Cl)c2)cc1-c1ccc(C(=O)Nc2ccncc2)cc1`, 567 nM; for `COc1ccc2ncc(F)c(CCN3CC(O)C(CNCc4ccc5oc(=O)ccc5c4)C3)c2n1` (stereo not given), 949 nM. In the case of `COc1ccc2nccc([C@@H](O)CN3CCC(NCc4cc5ccccc5[nH]4)CC3)c2n1`, the XC50 came to 628 nM. For `O=C(Cc1c[nH]cn1)Nc1cccc(-c2cccc(-c3nc4ccccc4[nH]3)c2)c1`, the XC50 came out at 1020 nM. Next, `COC(=O)c1ccc(NC(=O)Nc2ccc(Cn3ncc(N4CCCNCC4)c(Cl)c3=O)cc2)cc1`: 605 nM; `O=C(Nc1cccc(-c2cc3ccccc3[nH]2)c1)C1CCN(Cc2ccccc2O)CC1`: 938 nM. Next, `CN(c1ccc(NC(=O)c2ccc(F)cc2)cc1)C1CCN(Cc2cccc(F)c2)C1` (stereo not given): 1410 nM; `C=CCN1CCC(N(Cc2cccc(Oc3ccccc3)c2)C(=O)C(c2ccccc2)c2ccccc2)CC1`: 1140 nM.

As for `CC(Cc1ccc(NC(=O)[C@@H](C)NCCc2cccc(Cl)c2)cc1)NCCc1cccc(Cl)c1` (stereo not given in full), the XC50 was found to be 778 nM.

Turning to `O=S(=O)(c1ccccc1OC(F)(F)F)C1CC2CCC(C1)N2S(=O)(=O)c1cccc(C(F)(F)F)c1` (stereo not given), the XC50 is 665 nM.

Consider `Cc1nc(C)c(-c2ccc(-c3ccc(F)cc3)cc2)c(O)c1Br`, for which the XC50 was 1070 nM. Next, `N#CN1CC[C@H](CS(=O)(=O)c2cccc(Br)c2)C1`: 874 nM. Next, `CC(C)NCc1ccc(-c2ccc(-c3nc4cc(C(F)(F)F)ccc4[nH]3)s2)cc1`: 181 nM; `COc1cc(C(=O)N2CCC(CCN3CCC4(CC3)CN(S(C)(=O)=O)c3ccccc34)CC2Cc2ccc(Cl)c(Cl)c2)cc(OC)c1OC` (stereo not given): 843 nM. Next, `O=C(Nc1ccc(Oc2ccccc2)cc1)NC1CCC(CN2CCC(c3c[nH]c4ccccc34)CC2)CC1` (stereo not given): 573 nM. In turn, `Cc1nc(NC2=NCN(CCCN3CCOCC3)CN2)nc2c(C)cccc12` came in with an XC50 of 1130 nM. Molecule `Cc1cc(C)c(CON2C(=N)N=C(N)NC2(C)C)cc1C` had an XC50 of 3.63 nM.

On to `COc1cc(C)ccc1N1CCN(CCCCNC(=O)c2ccc(NC(=O)c3ccc(Cl)cc3)cc2)CC1`, for which the XC50 was found to be 700 nM. Next, `O=C(Cc1c[nH]cn1)Nc1cccc(-c2ccc(-c3nc4cc(F)ccc4[nH]3)cc2)c1`: 806 nM; `CN1CCN(Cc2cccc(Nc3nccc(Nc4ccc(Oc5ccccc5)cc4)n3)c2)CC1`: 296 nM. On to `Nc1nc(N)c2cc(CNc3ccc(Cl)c(Cl)c3)ccc2n1`, for which the XC50 was 1020 nM. For `COCCN1CCN(Cc2ccc(-c3cccc(-c4nc5ccccc5[nH]4)c3)cc2)CC1` the value was 1110 nM; for `CCSc1ccc(C)cc1CON1C(N)=NC(N)=NC1(C)C`, 3.2 nM. Next, `CCN1CCN(c2ccc(Nc3ccnc4ccc(Br)cc34)cc2)CC1`: 300 nM. Regarding `CC(C)CC(NC(=O)c1cc2ccccc2s1)C(=O)N1CCCCCC1c1ccc(C(C)(C)C)cc1` (stereo not given), the XC50 was 857 nM. For `N[C@@H](CCNC1CCN(c2cccc(C(F)(F)F)c2)CC1)Cc1ccc(F)c(F)c1` the value was 1290 nM; for `Cn1cncc1C(=O)Nc1cccc(-c2ccc(-c3nc4ccccc4[nH]3)s2)c1`, 796 nM; for `CN1CCN(Cc2cccc(-c3ccc4c(Nc5ccc(Oc6cccnc6)cc5)ccnc4c3)c2)CC1`, 192 nM. Next, `N=C(NCCCCCCNC(=N)NC(=N)c1ccc(Cl)cc1)NC(=N)c1ccc(Cl)cc1`: 212 nM; `O=C(Nc1cc(C(F)(F)F)ccc1-n1cncn1)C1(c2ccccc2)CC1`: 60.1 nM; `N#Cc1ccc(-c2ccc(C(=O)NCCCCN3CCC(c4ccc5c(c4OCc4ccncc4)CCCC5)CC3)cc2)cc1`: 757 nM. Take `COc1ccc(CC(C)NCC(O)c2cccc(Cl)c2F)cc1` (stereo not given): the XC50 is 1080 nM.

`CCCOc1c(CCNCCCCNCCc2ccc3ccccc3c2OCCC)ccc2ccccc12` yielded an XC50 of 482 nM. In the case of `CCCc1cc(Cc2cnc(N)nc2N)cc(CCC)c1OCCCCC(=O)OCC`, the XC50 was determined as 54.1 nM. Next, `Cc1ccccc1C1CCN(C2CCC(NC(=O)/C=C/c3cccc(C(F)(F)F)c3)CC2)CC1` (stereo not given): 1520 nM. For `COc1cc(OC)cc(C(=O)N2CCOC(CCN3CCC(c4ccccc4)CC3)(c3ccc(Cl)c(Cl)c3)C2)c1` (stereo not given) the value was 442 nM; for `CC(C)(C)c1ccc(NC(=O)c2ccc(CN3CCCN(Cc4ccc(F)cc4)CC3)cc2)cc1`, 1110 nM; for `Brc1ccc(Nc2nc3ccccc3nc2Nc2ccc(Br)cc2)cc1`, 783 nM.

`NC1CCN(Cc2cccc(-c3ccc(-c4nc5cc(F)ccc5[nH]4)cc3)c2)C1` (stereo not given) showed an XC50 of 596 nM. For `CC1(C)N=C(N)N=C(N)C1c1ccc(Cl)cc1` (stereo not given) the value was 259 nM. `O=C(/C=C/c1ccc(Cl)c(Cl)c1)NCCCCCCN1CCN(C(=O)Nc2cc(Cl)nc(Cl)c2)CC1` yielded an XC50 of 784 nM. Next, `COc1ccc(C=C2SC(=O)N=C2Nc2ccccc2)c(OC)c1`: 470 nM; `COc1cc(CNC[C@@H](O)[C@H](Cc2ccccc2)NC(=O)c2cc(C3CCCC3)cc(N3CCCC3=O)c2)cc(OC)c1`: 224 nM. Next, `COc1ccc2nccc([C@@H](O)CN3CCC(NC(=O)/C=C/c4ccc5ccccc5n4)CC3)c2c1`: 993 nM. For `CCOC(=O)C1=C(C)N=c2sc(=Cc3cc(Cl)ccc3O)c(=O)n2C1c1cc(OC)c(OC)cc1Br` (stereo not given) the value was 993 nM; for `Cc1ccc(-n2nc3ccc(NC(=O)c4ccc([N+](=O)[O-])o4)cc3n2)cc1C`, 397 nM. As to `NC(=O)c1ccc(NCC(=O)Nc2cccc(-c3cccc(-c4nc5cc(C(F)(F)F)ccc5[nH]4)c3)c2)cc1`, the XC50 was 270 nM.

On to `COCCNCc1cccc(-c2ccc(CNC3CCN(Cc4ccccc4)CC3)cc2)c1`, for which the XC50 is 508 nM. For `O=C(NCCCNc1ccnc2cc(Cl)ccc12)c1ccccc1F` the value was 315 nM. For `O=C(C=Cc1ccc(Cl)c(Cl)c1)NCCCCCN1CCC(CCCNS(=O)(=O)c2ccc(Br)cc2)CC1` the value was 1130 nM; for `CN(C)CCOc1ccc2c(c1)OC(C)(C)C=C2c1cccc2ccccc12`, 785 nM.

`c1cc(CN2CCC(CCN3CCCCC3)CC2)cc(-c2cccc(-c3nc4ccccc4[nH]3)c2)c1`: the XC50 amounted to 140 nM. For `CCCc1cc(=O)[nH]c(-n2nc(C)cc2NC(=O)CC(c2ccccc2)c2ccccc2)n1` the value was 618 nM; for `Oc1ccc(CCNc2nc(NCCCOc3cccc(-c4ccccc4)c3)nc(N3CCNCC3)n2)cc1`, 1130 nM; for `N#Cc1ccc(NC(=O)c2ccc(Cc3ccc4c(c3)CCN(C3CCC3)CC4)cn2)cc1`, 1120 nM.

Turning to `Cc1c(C(=O)C2CC2CN2CCC(N3CCCCC3)CC2)sc2ccccc12` (stereo not given), the XC50 came out at 1020 nM. Next, `COc1ccc(-c2nonc2NC(=O)c2cccc(Cl)c2)cc1OC`: 876 nM; `Oc1ccc2ccccc2c1C=NNc1nc(=Nc2ccccc2)[nH]c(=Nc2ccccc2)[nH]1`: 667 nM. Next, `Cc1cc(NC(=O)c2ccc(-c3ccccc3)cc2)no1`: 1020 nM; `O=S(=O)(c1ccc(Cl)cc1Cl)N1CCCCC(c2ccc(C(F)(F)F)cc2)=N1`: 160 nM; `CCCOc1ccc(C(=O)Nc2nonc2-c2ccc(OC)c(OC)c2)cc1`: 991 nM.

Consider `CC(C)=CC1C(C(=O)n2c(=N)[nH]c3ccccc32)C1(C)C` (stereo not given), for which the XC50 was 193 nM.

As for `O=C(NCc1ccc(S(=O)(=O)N2CCC(CN3CCC(c4c[nH]c5ccccc45)CC3)CC2)s1)c1ccccc1`, the XC50 was 843 nM. Next, `O=C(Nc1ccc2c(c1)CCC2)c1cccc(CN2CCCN(Cc3cccc(O)c3)CC2)c1`: 1080 nM; `CCn1ncc2c(N3CCCC3=O)cc(C(=O)N[C@@H](Cc3ccccc3)[C@H](O)CNC(C)(C)c3cccc(OC)c3)cc21`: 107 nM. Next, `N=C1N=C(N)NC2(CCCCC2)N1OCCOc1ccc(Cc2ccccc2)cc1`: 1130 nM; `COc1cc(F)c2ncc(Cl)c(CCN3CCC(NCc4ccc5c(c4)NC(=O)CS5)CC3)c2c1`: 313 nM; `CNC(=O)Cc1ccc(C(=O)Nc2cccc(-c3csc(-c4nc5ccccc5[nH]4)c3)c2)cc1`: 273 nM. Next, `COc1ccc(C(=O)C2CCN(CCCCNC(=O)c3ccc(NC(=O)c4cc(Cl)cc(Cl)c4)cc3)CC2)cc1`: 173 nM. In turn, `CC(=O)c1ccc(S(=O)(=O)N2CCC(C(=O)Nc3ccccc3N3CCCC3)CC2)cc1` displayed an XC50 of 833 nM.

The molecule `COc1ccc(Nc2nccc(NCCNC(=O)Nc3cc(C)ccc3C)n2)cc1` displayed an XC50 of 1050 nM. For `CC(=O)Nc1ccc(C(=O)Nc2ccc(-c3cccc(-c4nc5cc(F)ccc5[nH]4)c3)cc2)cn1` the value was 231 nM; for `COc1cc2nc(N3CCC(CCCC4CCNCC4)CC3)nc(NCc3ccccn3)c2cc1OC`, 757 nM.
